From patent US20250326748A1, “COMPOUNDS AND METHODS FOR MODULATING SPLICING” (REMIX THERAPEUTICS INC., priority 2022, published 2025)
Where two headings read alike, the source gives them in different places.

What was measured:
Target C mRNA = test: Splicing RT-qPCR panel, Target C canonical junction (CJ) mRNA; assay type: cell-based, human; conditions: Homo sapiens, read-out: Target C CJ (decrease in CJ mRNA levels, IC50)
Procedure, shortened: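 A673 cells (DMEM, 10% FBS) or K562 cells (IMDM, 10% FBS) treated 24 h at 37 °C with an 11-point 3-fold dilution, top 10 uM, DMSO ≤0.25%. Canonical-junction mRNA quantified in lysates by RT-qPCR, normalised to GAPDH, GUSB or PPIA and to DMSO (2^−ΔΔCt), then converted to % response.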

SMN2 mRNA = test: Splicing RT-qPCR panel, SMN2 canonical junction (CJ) mRNA; assay type: cell-based, human; conditions: Homo sapiens, read-out: SMN2 CJ (decrease in CJ mRNA levels, IC50)
Description: Compounds described herein were used to modulate RNA transcript abundance in cells. The expression of a target mRNA was measured by detecting the formation of an exon-exon junction in the canonical transcript (CJ). A compound mediated exon-inclusion event was detected by observing an increase in formation of a new junction with an alternative exon (AJ). Real-time qPCR assays were used to detect these splicing switches and interrogate the potency of various compounds towards different target genes. A high-throughput real time quantitative PCR (RT-qPCR) assay was developed to measure these two isoforms of the mRNA (CJ and AJ) for exemplary genes, such as HTT, SMN2, and MYB, together with a control housekeeping gene, GAPDH or GUSB or PPIA, used for normalization. Briefly, the A673 or K562 cell line was treated with various compounds described herein (e.g., compounds of Formula (D). After treatment, the levels of the HTT, MYB, or SMN2 mRNA targets were determined from each sample of cell lysate by cDNA synthesis followed by qPCR.
The A673 cell line was cultured in DMEM with 10% FBS. Cells were diluted with full growth media and plated in a 96-well plate (15,000 cells in 100 ul media per well). The plate was incubated at 37° C. with 5% CO2 for 24 hours to allow cells to adhere. An 11-point 3-fold serial dilution of the compounds was made in DMSO then diluted in media in an intermediate plate. Compounds were transferred from the intermediate plate to the cell plate with the top dose at a final concentration of 10 uM in the well. Final DMSO concentration was kept at or below 0.25%. The cell plate was returned to the incubator at 37° C. with 5% CO2 for an additional 24 hours.
The K562 cell line was cultured in IMDM with 10% FBS. For K562, cells were diluted with full growth media and plated in either a 96-well plate (50,000 cells in 50 uL media per well) or a 384-well plate (8,000-40,000 cells in 45 uL media per well). An 11-point 3-fold serial dilution of the compounds were made in DMSO then diluted in media in an intermediate plate. Compound was transferred from the intermediate plate to the cell plate with the top dose at a final concentration of 10 uM in the well. Final DMSO concentration was kept at or below 0.25%. Final volume was 100 uL for 96-well plate and 50 uL for 384-well plate. The cell plate was then placed in an incubator at 37° C. with 5% CO2 for 24 hours.
The cells were then gently washed with 50 uL-100 uL cold PBS before proceeding to addition of lysis buffer. 30 uL-50 μL of room temperature lysis buffer with DNAse I (and optionally RNAsin) was added to each well. Cells were shaken/mixed thoroughly at room temperature for 5-10 minutes for lysis to take place and then 3 uL-5 μL of room temperature stop solution was added and wells were shaken/mixed again. After 2-5 minutes, the cell lysate plate was transferred to ice for RT-qPCR reaction setup. The lysates could also be frozen at −80° C. for later use.
In some cases, a direct lysis buffer was used. An appropriate volume of 3× lysis buffer (10 mM Tris, 150 mM NaCl, 1.5%-2.5% Igepal and 0.1-1 U/uL RNAsin, pH 7.4) was directly added to either K562 or A673 cells in media and mixed by pipetting 3 times. The plates were then incubated at room temperature with shaking/rocking for 20-50 minutes to allow for lysis to take place. After this time, the cell lysate plate was transferred to ice to set up for the RT-qPCR reactions. The lysates could also be frozen at −80° C. for later use.
To set up 10 uL RT-qPCR reactions, cell lysates were transferred to 384-well qPCR plates containing the master mix according to the table below. The plates were sealed, gently vortexed, and spun down before the run. The volumes were adjusted accordingly in some instances where the reaction was carried in 20 μL. The table below summarizes the components of the RT-qPCR reactions:
The RT-qPCR reaction was performed using a QuantStudio (ThermoFisher) under the following fast cycling conditions. […]

K562 cells = test: Cell viability, Cell Titer Glo 2.0 assay, K562; conditions: 72 hours
HTT mRNA = test: Splicing RT-qPCR assay, HTT canonical (CJ) and alternative (AJ) junction mRNA; assay type: cell-based, human; conditions: Homo sapiens; for IC50: canonical junction mRNA; for AC50: alternative junction mRNA, read-out: HTT AJ (AC50, increase in AJ mRNA)
Procedure, shortened: (§1)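 Treatment of A673 or K562 cultures with compounds (eleven-point titration, highest final 10 uM, ≤0.25% DMSO) ran one day at 37 °C. Afterwards cells were lysed directly in the well, and cDNA synthesis coupled with qPCR measured CJ and AJ isoform levels against a reference transcript.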

MYB mRNA = test: Splicing RT-qPCR assay, MYB canonical (CJ) and alternative (AJ) junction mRNA; assay type: cell-based, human; conditions: Homo sapiens; for IC50: canonical junction mRNA; for AC50: alternative junction mRNA, read-out: MYB AJ (AC50, increase in AJ mRNA)
Procedure, shortened: as §1

[1] = 24 h, RT-qPCR, A673 or K562 cells, 24 hours treatment, read-out: HTT CJ (IC50, decrease in CJ mRNA)
[2] = qPCR panel, read-out: HTT CJ (decrease in CJ mRNA levels, IC50)
[3] = RT-qPCR, A673 or K562 cells, 24 hours treatment
[4] = qPCR panel, read-out: MYB CJ (decrease in CJ mRNA levels, IC50)
[5] = RT-qPCR, A673 or K562 cells, 24 hours treatment, read-out: MYB CJ (IC50, decrease in CJ mRNA)

## COc1nc(-c2cc3cn(C)nc3c(C)c2O)nc2ncc(N3C[C@@H](C)N[C@@H](C)C3)cc12 [Compound 369]
Target C mRNA
  IC50: 1 to 10 µM
SMN2 mRNA
  IC50: < 0.1 µM
K562 cells
  Effect on Cell Viability, K562: B (100-1000 nM)
HTT mRNA; [1]
  IC50: 1 to 10 µM
HTT mRNA; [2]
  IC50: 1 to 10 µM
HTT mRNA; [3]
  AC50: 1 to 10 µM
MYB mRNA; [4]
  IC50: 0.1 to 1 µM
MYB mRNA; [3]
  AC50: 0.1 to 1 µM
MYB mRNA; [5]
  IC50: 0.1 to 1 µM

## CN1CCC[C@H]2CN(c3cnc4nc(-c5cc6cn(C)nc6cc5O)cc(Cl)c4c3)C[C@H]21 [Compound 372, 5-{6-[(4aS,7aS)-1-methyl-hexahydro-2H-pyrrolo[3,4-b]pyridin-6-yl]-4-chloro-1,8-naphthyridin-2-yl}-2-methylindazol-6-ol]
Target C mRNA
  IC50: > 10 µM
SMN2 mRNA
  IC50: < 0.1 µM
K562 cells
  Effect on Cell Viability, K562: B (100-1000 nM)
HTT mRNA; [1]
  IC50: > 10 µM
HTT mRNA; [2]
  IC50: > 10 µM
HTT mRNA; [3]
  AC50: > 10 µM
MYB mRNA; [4]
  IC50: 0.1 to 1 µM
MYB mRNA; [3]
  AC50: 0.1 to 1 µM
MYB mRNA; [5]
  IC50: 0.1 to 1 µM

## C[C@H]1CN(c2cnc3nc(-c4cc(F)c5nn(C)cc5c4)ccc3c2)CCN1 [Compound 373, 2-(7-fluoro-2-methylindazol-5-yl)-6-[(3S)-3-methylpiperazin-1-yl]-1,8-naphthyridine]
Target C mRNA
  IC50: 1 to 10 µM
SMN2 mRNA
  IC50: < 0.1 µM
K562 cells
  Effect on Cell Viability, K562: B (100-1000 nM)
HTT mRNA; [1]
  IC50: 1 to 10 µM
HTT mRNA; [2]
  IC50: 1 to 10 µM
HTT mRNA; [3]
  AC50: 1 to 10 µM
MYB mRNA; [4]
  IC50: 0.1 to 1 µM
MYB mRNA; [3]
  AC50: 0.1 to 1 µM
MYB mRNA; [5]
  IC50: 0.1 to 1 µM

## C[C@H]1CN(c2cnc3nc(-c4cc5cn(C)nc5cc4O)cc(Cl)c3c2)CC2(CC2)N1 [Compound 379]
Target C mRNA
  IC50: > 10 µM
SMN2 mRNA
  IC50: < 0.1 µM
K562 cells
  Effect on Cell Viability, K562: B (100-1000 nM)
HTT mRNA; [1]
  IC50: 1 to 10 µM
HTT mRNA; [2]
  IC50: 1 to 10 µM
HTT mRNA; [3]
  AC50: 1 to 10 µM
MYB mRNA; [4]
  IC50: 0.1 to 1 µM
MYB mRNA; [3]
  AC50: 0.1 to 1 µM
MYB mRNA; [5]
  IC50: 0.1 to 1 µM

## Cc1c(O)c(-c2ccc3c(Cl)c(N4C[C@@H](C)N[C@@H](C)C4)cnc3n2)cc2cn(C)nc12 [Compound 390]
Target C mRNA
  IC50: 1 to 10 µM
SMN2 mRNA
  IC50: < 0.1 µM
K562 cells
  Effect on Cell Viability, K562: A (<100 nM)
HTT mRNA; [1]
  IC50: 1 to 10 µM
HTT mRNA; [2]
  IC50: 1 to 10 µM
HTT mRNA; [3]
  AC50: > 10 µM
MYB mRNA; [4]
  IC50: 0.1 to 1 µM
MYB mRNA; [3]
  AC50: < 0.1 µM
MYB mRNA; [5]
  IC50: < 0.1 µM

## Cc1c(O)c(-c2ccc3c(Cl)c(N4C[C@H](C)N[C@@H](C)C4)cnc3n2)cc2cn(C)nc12 [Compound 394]
Target C mRNA
  IC50: 1 to 10 µM
SMN2 mRNA
  IC50: < 0.1 µM
K562 cells
  Effect on Cell Viability, K562: B (100-1000 nM)
HTT mRNA; [1]
  IC50: 0.1 to 1 µM
HTT mRNA; [2]
  IC50: 0.1 to 1 µM
HTT mRNA; [3]
  AC50: 0.1 to 1 µM
MYB mRNA; [4]
  IC50: < 0.1 µM
MYB mRNA; [3]
  AC50: < 0.1 µM
MYB mRNA; [5]
  IC50: < 0.1 µM

## C[C@H]1CN(c2cnc3nc(-c4cc(F)c5nn(C)cc5c4)cc(Cl)c3c2)CC2(CC2)N1 [Compound 396]
Target C mRNA
  IC50: 1 to 10 µM
SMN2 mRNA
  IC50: < 0.1 µM
K562 cells
  Effect on Cell Viability, K562: C (1000-9999 nM)
HTT mRNA; [1]
  IC50: 1 to 10 µM
HTT mRNA; [2]
  IC50: 1 to 10 µM
HTT mRNA; [3]
  AC50: 1 to 10 µM
MYB mRNA; [4]
  IC50: 0.1 to 1 µM
MYB mRNA; [3]
  AC50: 0.1 to 1 µM
MYB mRNA; [5]
  IC50: 0.1 to 1 µM

## C[C@@H]1CN(c2cnc3nc(-c4cc(F)c5nn(C)cc5c4)cc(Cl)c3c2)CC2(CC2)N1 [Compound 397]
Target C mRNA
  IC50: > 10 µM
SMN2 mRNA
  IC50: < 0.1 µM
K562 cells
  Effect on Cell Viability, K562: C (1000-9999 nM)
HTT mRNA; [1]
  IC50: 1 to 10 µM
HTT mRNA; [2]
  IC50: 1 to 10 µM
HTT mRNA; [3]
  AC50: > 10 µM
MYB mRNA; [4]
  IC50: 0.1 to 1 µM
MYB mRNA; [3]
  AC50: 1 to 10 µM
MYB mRNA; [5]
  IC50: 0.1 to 1 µM

## Cc1c(O)c(-c2cc(Cl)c3cc(N4C[C@H](C)NC5(CC5)C4)cnc3n2)cc2cn(C)nc12 [Compound 398]
Target C mRNA
  IC50: > 10 µM
SMN2 mRNA
  IC50: < 0.1 µM
K562 cells
  Effect on Cell Viability, K562: B (100-1000 nM)
HTT mRNA; [1]
  IC50: 0.1 to 1 µM
HTT mRNA; [2]
  IC50: 0.1 to 1 µM
HTT mRNA; [3]
  AC50: 0.1 to 1 µM
MYB mRNA; [4]
  IC50: < 0.1 µM
MYB mRNA; [3]
  AC50: < 0.1 µM
MYB mRNA; [5]
  IC50: < 0.1 µM

## Cc1c(O)c(-c2cc(Cl)c3cc(N4C[C@@H](C)NC5(CC5)C4)cnc3n2)cc2cn(C)nc12 [Compound 399]
Target C mRNA
  IC50: > 10 µM
SMN2 mRNA
  IC50: < 0.1 µM
K562 cells
  Effect on Cell Viability, K562: B (100-1000 nM)
HTT mRNA; [1]
  IC50: 1 to 10 µM
HTT mRNA; [2]
  IC50: 1 to 10 µM
HTT mRNA; [3]
  AC50: > 10 µM
MYB mRNA; [4]
  IC50: < 0.1 µM
MYB mRNA; [3]
  AC50: < 0.1 µM
MYB mRNA; [5]
  IC50: < 0.1 µM

## Cc1cn2nc(-c3cc(Cl)c4cc(N5C[C@H](C)NC6(CC6)C5)cnc4n3)cc(C)c2n1 [Compound 400]
Target C mRNA
  IC50: 1 to 10 µM
SMN2 mRNA
  IC50: < 0.1 µM
K562 cells
  Effect on Cell Viability, K562: C (1000-9999 nM)
HTT mRNA; [1]
  IC50: 1 to 10 µM
HTT mRNA; [2]
  IC50: 1 to 10 µM
HTT mRNA; [3]
  AC50: 1 to 10 µM
MYB mRNA; [4]
  IC50: 0.1 to 1 µM
MYB mRNA; [3]
  AC50: 0.1 to 1 µM
MYB mRNA; [5]
  IC50: 0.1 to 1 µM
